{"source": "patent US10925865B2", "about": "“Charged ion channel blockers and methods for use” (Nocion Therapeutics, Inc., priority 2019, dated 2021)", "key": {"[1]": {"biological_target": "T1, NaV1.7 (Homo sapiens, UniProt Q15858)", "T1 construct": "expressed in transfected cells; host or cells: Tetracycline-inducible cell line kept under hygromycin and blasticidin selection", "T1 sequence (Q15858 whole entry)": "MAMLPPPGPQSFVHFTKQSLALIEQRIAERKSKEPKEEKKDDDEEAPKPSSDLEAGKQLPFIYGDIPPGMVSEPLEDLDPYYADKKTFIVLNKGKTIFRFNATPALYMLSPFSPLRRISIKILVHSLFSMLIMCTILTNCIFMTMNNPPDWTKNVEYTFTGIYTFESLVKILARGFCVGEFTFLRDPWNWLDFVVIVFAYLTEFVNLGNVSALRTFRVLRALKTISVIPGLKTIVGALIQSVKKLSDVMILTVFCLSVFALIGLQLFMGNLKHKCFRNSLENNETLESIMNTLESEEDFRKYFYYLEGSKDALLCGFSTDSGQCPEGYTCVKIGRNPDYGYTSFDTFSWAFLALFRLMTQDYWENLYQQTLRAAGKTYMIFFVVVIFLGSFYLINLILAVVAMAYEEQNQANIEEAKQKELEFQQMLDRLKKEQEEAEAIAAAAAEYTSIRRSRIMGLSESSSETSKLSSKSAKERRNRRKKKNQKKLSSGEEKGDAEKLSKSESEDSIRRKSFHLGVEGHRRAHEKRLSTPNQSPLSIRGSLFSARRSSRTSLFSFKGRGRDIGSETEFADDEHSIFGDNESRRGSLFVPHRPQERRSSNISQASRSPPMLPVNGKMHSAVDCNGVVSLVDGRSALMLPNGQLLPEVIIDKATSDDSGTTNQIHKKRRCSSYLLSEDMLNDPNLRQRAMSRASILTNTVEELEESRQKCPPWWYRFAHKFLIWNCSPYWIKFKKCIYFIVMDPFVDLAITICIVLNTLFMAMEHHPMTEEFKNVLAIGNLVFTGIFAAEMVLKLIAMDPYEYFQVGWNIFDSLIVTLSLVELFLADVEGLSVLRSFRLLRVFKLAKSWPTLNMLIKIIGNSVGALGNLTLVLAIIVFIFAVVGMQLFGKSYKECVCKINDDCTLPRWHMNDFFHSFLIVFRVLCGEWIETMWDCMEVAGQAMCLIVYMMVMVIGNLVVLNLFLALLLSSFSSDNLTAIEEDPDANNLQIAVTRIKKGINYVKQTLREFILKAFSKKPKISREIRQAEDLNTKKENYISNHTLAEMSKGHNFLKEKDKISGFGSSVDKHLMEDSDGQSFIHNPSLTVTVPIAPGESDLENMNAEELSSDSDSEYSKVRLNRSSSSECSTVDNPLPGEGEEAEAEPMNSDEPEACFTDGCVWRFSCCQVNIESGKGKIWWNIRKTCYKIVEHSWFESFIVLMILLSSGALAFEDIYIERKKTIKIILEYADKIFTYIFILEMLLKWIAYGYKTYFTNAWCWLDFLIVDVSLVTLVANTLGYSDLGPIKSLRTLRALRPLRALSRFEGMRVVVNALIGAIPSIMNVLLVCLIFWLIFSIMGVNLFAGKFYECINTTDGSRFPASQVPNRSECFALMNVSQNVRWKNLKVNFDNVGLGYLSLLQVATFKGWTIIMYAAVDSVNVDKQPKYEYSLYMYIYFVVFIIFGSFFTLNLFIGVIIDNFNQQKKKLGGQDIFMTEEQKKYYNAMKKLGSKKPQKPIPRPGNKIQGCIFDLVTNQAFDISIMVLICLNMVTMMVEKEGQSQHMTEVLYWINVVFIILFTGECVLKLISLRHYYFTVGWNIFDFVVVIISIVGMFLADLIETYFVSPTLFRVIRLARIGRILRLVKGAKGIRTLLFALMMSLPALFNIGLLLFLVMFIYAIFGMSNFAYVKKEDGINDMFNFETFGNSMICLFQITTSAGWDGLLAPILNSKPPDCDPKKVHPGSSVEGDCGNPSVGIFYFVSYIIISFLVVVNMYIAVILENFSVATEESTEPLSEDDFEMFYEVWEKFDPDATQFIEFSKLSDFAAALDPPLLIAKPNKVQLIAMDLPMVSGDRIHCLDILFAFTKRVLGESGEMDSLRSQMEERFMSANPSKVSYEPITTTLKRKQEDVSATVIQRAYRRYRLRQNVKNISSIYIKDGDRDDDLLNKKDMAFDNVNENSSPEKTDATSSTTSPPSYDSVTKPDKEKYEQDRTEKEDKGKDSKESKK", "test": "Nav1.7 whole cell patch clamp, internal block (intracellular inhibition)", "type": "cell-based", "settings": "test concentration 10 μM, compound in internal solution, 5 Hz stimulation", "description": "(§1) The compounds were synthesized according to the described method and tested for the ability to inhibit voltage-gated sodium channels.\n(§2) NaV1.7 was expressed upon induction with tetracycline. Cells were cultured in DMEM containing 10% dialyzed Fetal Bovine Serum (VWR, Radnor, Pa.), 1% Glutamax (VWR, Radnor, Pa.), 1% Penicillin-Streptomycin (VWR, Radnor, Pa.), 100 mg/L Hygromycin (Thermo Fisher Scientific, Waltham, Mass. and 5 mg/L Blasticidin (Alfa Aesar, Haverhill, Mass.). Cells were grown and maintained at 37° C. in a humidified environment containing 10% CO2 in air. Cells were detached from the culture flask for passage and harvested using 0.05% Trypsin-EDTA (Thermo Fisher Scientific, Waltham, Mass.). To induce NaV1.7, cells were induced with tetracycline ([…], IBI Scientific, Peosta, Iowa) the day before recording and plated onto 24-well plates. Cells were washed with DPBS (VWR, Radnor, Pa.), trypsinized and then triturated five times in 10 mL of growth media to break apart cell aggregates. For one 24-well plate, 2 mL of cell suspension was mixed with 23 mL of fresh growth media and […] tetracycline added. 1 ml of mixed media with cells was then added to each well of a 24-well plate, with a 12 mm coverslip already placed in the bottom of the well. Cells were then incubated in 37° C. and 10% CO2 overnight.\n(§3) The intracellular solution contained the following (in mM) CsCl 135, NaCl 10, EGTA 10, HEPES 10, MgCl2 2, adjusted to pH 7.2 with CsOH. The external solution was a normal Ringer solution containing (in mM) NaCl 155, HEPES 10, glucose 10, KCl 3.5, CaCl2 1.5, MgCl2 1 adjusted to pH 7.4 with NaOH. CsCl is from Alfa Aesar, Haverhill, Mass. All other chemicals are from Sigma-Aldrich, St. Louis, Mo. In order to test the degree of internal block by test compounds the compounds were dissolved in internal solution at the indicated test concentration. […] In order to test the degree of external block by test compounds the compounds were dissolved in external solution at the indicated test concentration.\n(§4) 18-24 hours after cells were induced with tetracycline, coverslips were placed into a chamber filled with Normal Ringer solution at room temperature and the chamber placed on a microscope. Pipettes were pulled from borosilicate glass on a P97 puller (Sutter Instrument, Novato, Calif.) and polished with a MF-830 Microforge (Narishige International USA, Inc., Amityville, N.Y.) to have a resistance of 1.5-2.5 MQ when filled with CsCl internal solution at room temperature. Healthy cells (those that are round and translucent with no visible blemishes) were chosen for seal formation. A seal was formed between the pipette and the cell, and a brief pulse of suction was used to “break in” and establish the whole-cell configuration. The membrane potential was held at −100 mV before the voltage protocol began. Only cells with series resistance between 1.5-5 MQ were retained for analysis. The voltage protocol was as follows: Cells were held at −100 mV for 12 ms followed by a hyperpolarizing step to −105 mV for 12 ms to monitor the leak. Cells were then stepped back to −100 mV for 40 ms. Cells were then depolarized to −20 mV for 10 ms and then returned to −100 mV for 26 ms (The FIGURE).\n(§5) Once the recording was started, the voltage protocol was run at 30 second intervals for 5 minutes to get a stable baseline. […] Currents were recorded using PatchMaster software with Heka EPC10 (HEKA Electronics, Lambrecht, Germany). […]"}, "[2]": {"biological_target": "T1, NaV1.7", "test": "Nav1.7 whole cell patch clamp, external block (extracellular application)", "type": "cell-based", "settings": "test concentration 30 μM, compound in external solution for 5 minutes, 5 Hz stimulation", "description": "as §1, §2, §3, §4, §5"}, "[3]": {"tested_on": "artificial lipid membrane", "test": "PAMPA membrane permeability assay", "type": "in vitro ADME", "settings": "pH 7.4 buffer, GIT lipid, 4 hours incubation", "description": "The PAMPA assay (pION, Inc., Woburn Mass.) was used to determine the ability of compounds of the invention to cross an artificial lipid membrane by passive diffusion. Test compounds were dissolved in DMSO (10 mM) and diluted 200-fold in buffer (pION Inc., pH 7.4) to provide 50 uM stock solutions. Buffer (150 μL) was added to a UV blank plate and stock solutions (150 μL) were transferred to a UV reference plate. The blank and reference spectrum were read using a spectrophotometer. Stock solutions (200 μL) were added to the donor plate of the PAMPA sandwich plate and an accept plate painted with GIT lipid (pION Inc., 5 μL) was placed on top. Buffer (200 μL) was added to the acceptor plate and the PAMPA sandwich plate was incubated for 4 hours. Aliquots (150 μL) from the acceptor plate were added to a UV plate and read as acceptor spectrum. Aliquots (150 μL) of the donor solutions were added to a UV analysis plate and read as donor spectrum. The permeability coefficient of test compounds was calculated using PAMPA Explorer™ software (version 3.5.0.4) based on the AUC of the reference plate, the donor plate, and the acceptor plate."}}}
{"compound": "CCc1cccc[n+]1CC(=O)Nc1c(C)cccc1C.[Br-]", "note": "[4′A, 1-(2-((2,6-dimethylphenyl)amino)-2-oxoethyl)-2-ethylpyridin-1-ium bromide]", "values": [{"measurement": "inhibition at 10 µM", "setting": "[1]", "result": "> 75", "unit": "%"}, {"measurement": "inhibition at 30 µM", "setting": "[2]", "result": "< 45", "unit": "%"}, {"measurement": "Papp at 4 h, 50 uM", "setting": "[3]", "result": "< 10", "unit": "nm/s"}]}
{"compound": "CCc1ccc[n+](CC(=O)Nc2c(C)cccc2C)c1.[Br-]", "note": "[3′A, 1-(2-((2,6-dimethylphenyl)amino)-2-oxoethyl)-3-ethylpyridin-1-ium bromide]", "values": [{"measurement": "inhibition at 10 µM", "setting": "[1]", "result": "> 75", "unit": "%"}, {"measurement": "inhibition at 30 µM", "setting": "[2]", "result": "< 45", "unit": "%"}, {"measurement": "Papp at 4 h, 50 uM", "setting": "[3]", "result": "< 10", "unit": "nm/s"}]}
{"compound": "CCOC(=O)c1ccc[n+](CC(=O)Nc2c(C)cccc2C)c1", "note": "[5′A, 1-(2-((2,6-dimethylphenyl)amino)-2-oxoethyl)-3-(ethoxycarbonyl)pyridin-1-ium bromide]", "values": [{"measurement": "inhibition at 10 µM", "setting": "[1]", "result": "> 75", "unit": "%"}, {"measurement": "inhibition at 30 µM", "setting": "[2]", "result": "< 45", "unit": "%"}]}
{"compound": "Cc1cccc(C)c1NC(=O)C[n+]1ccccc1-c1ccccc1.[Br-]", "note": "[2′A, 1-(2-((2,6-dimethylphenyl)amino)-2-oxoethyl)-2-phenylpyridin-1-ium bromide]", "values": [{"measurement": "inhibition at 10 µM", "setting": "[1]", "result": "> 75", "unit": "%"}, {"measurement": "inhibition at 30 µM", "setting": "[2]", "result": "< 45", "unit": "%"}, {"measurement": "Papp at 4 h, 50 uM", "setting": "[3]", "result": "< 10", "unit": "nm/s"}]}
{"compound": "Cc1cccc(C)c1NC(=O)C[n+]1cccc(-c2ccccc2)c1.[Br-]", "note": "[1′A, 1-(2-((2,6-dimethylphenyl)amino)-2-oxoethyl)-3-phenylpyridin-1-ium bromide]", "values": [{"measurement": "inhibition at 10 µM", "setting": "[1]", "result": "> 75", "unit": "%"}, {"measurement": "inhibition at 30 µM", "setting": "[2]", "result": "< 45", "unit": "%"}, {"measurement": "Papp at 4 h, 50 uM", "setting": "[3]", "result": "< 10", "unit": "nm/s"}]}
